Measurements reported in US20240115557A1, “INHIBITORS OF RNA-GUIDED NUCLEASES AND USES THEREOF” (The Brigham and Women's Hospital, Inc., priority 2022, published 2024).

Experiments:
SaCas9 [1] = target: T1, SaCas9 (Staphylococcus aureus, UniProt J7RUA5); test: eGFP secondary assay, SaCas9; type: cell-based; conditions: for Z score Avg Z: average of two replicates, Zscore>3 selected as hit; for Normalized Inhibition Rep 1: replicate 1; for Normalized eGFP Disruption Rep 1: replicate 1, % eGFP disruption; for Z score Rep1: replicate 1, Zscore>3 selected as hit; for Normalized Inhibition Rep 2: replicate 2; for Normalized eGFP Disruption Rep 2: replicate 2, % eGFP disruption; for Z score Rep 2: replicate 2, Zscore>3 selected as hit
T1 sequence (J7RUA5 1-1053): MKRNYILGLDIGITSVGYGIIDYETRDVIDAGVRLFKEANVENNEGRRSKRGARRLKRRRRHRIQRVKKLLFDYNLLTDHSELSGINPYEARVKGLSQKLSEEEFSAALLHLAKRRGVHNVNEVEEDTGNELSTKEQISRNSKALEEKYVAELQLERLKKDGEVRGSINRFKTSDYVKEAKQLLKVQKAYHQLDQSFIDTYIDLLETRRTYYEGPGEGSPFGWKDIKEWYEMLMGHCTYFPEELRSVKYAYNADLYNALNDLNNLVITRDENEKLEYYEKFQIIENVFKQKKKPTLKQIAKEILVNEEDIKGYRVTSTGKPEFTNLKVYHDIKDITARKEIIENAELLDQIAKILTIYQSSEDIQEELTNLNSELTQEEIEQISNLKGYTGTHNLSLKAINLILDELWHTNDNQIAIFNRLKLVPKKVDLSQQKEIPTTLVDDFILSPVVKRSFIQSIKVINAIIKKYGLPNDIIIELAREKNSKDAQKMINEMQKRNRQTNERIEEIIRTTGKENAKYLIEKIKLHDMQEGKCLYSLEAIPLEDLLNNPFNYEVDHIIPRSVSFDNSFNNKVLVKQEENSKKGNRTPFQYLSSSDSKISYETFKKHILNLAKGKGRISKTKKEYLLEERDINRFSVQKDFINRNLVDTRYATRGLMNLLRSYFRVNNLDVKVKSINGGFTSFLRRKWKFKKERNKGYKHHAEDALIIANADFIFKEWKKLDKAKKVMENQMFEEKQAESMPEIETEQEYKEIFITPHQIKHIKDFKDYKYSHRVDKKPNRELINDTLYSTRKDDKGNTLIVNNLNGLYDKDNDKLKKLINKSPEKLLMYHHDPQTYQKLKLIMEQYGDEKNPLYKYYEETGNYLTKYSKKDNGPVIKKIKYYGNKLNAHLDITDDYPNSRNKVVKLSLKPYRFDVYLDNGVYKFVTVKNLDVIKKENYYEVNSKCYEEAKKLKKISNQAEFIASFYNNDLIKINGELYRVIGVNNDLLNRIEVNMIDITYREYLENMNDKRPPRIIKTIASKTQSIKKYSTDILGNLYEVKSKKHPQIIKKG
Protocol: All hit compounds were moved forward into the secondary and tertiary screens, in which they were tested in cell-based assays. An eGFP assay is used to determine hits in cells as the secondary screen (eGFP assay).
The eGFP secondary assay evaluated the hits identified from the primary screen. The compounds were judged off the % eGFP disruption to determine the Cas9 inhibition and the assay Zscore. […] The hits from the secondary screens will be processed through tertiary screens of dose studies and HiBit Assay as detailed herein.

SaCas9 [2] = target: T1, SaCas9; test: Strand displacement assay, SaCas9 primary screen; type: biochemical; conditions: for Auto Zscore Rep 1 / Auto Zscore Rep 2 / Normalized Zscore Rep 1 / Normalized Zscore Rep 2: SaCas9 primary screen; for Auto Zscore Rep 1 / Normalized Zscore Rep 1: replicate 1; for Auto Zscore Rep 2 / Normalized Zscore Rep 2: replicate 2; for Normalized Zscore Rep 1 / Normalized Zscore Rep 2: weaker potential hits; for 3 sigma Hit: flag 1 = hit at 3 sigma
Outline: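 Cas9 RNP (1:1.2 protein:gRNA) pre-formed in 20 mM Tris-HCl pH 7.5, 100 mM KCl, 5 mM MgCl2, used at 10 nM (2× stock) with Alexa-Fluor 647 substrate/quencher at 1 nM/5 nM (2× stock). Reaction ran 2.5 h at 37°C; strand displacement read as fluorescence. Hits called by Z-score: 3–5σ weak, >5σ strong.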

SpCas9 = SpCas9 (Streptococcus pyogenes serotype M1, UniProt Q99ZW2); test: eGFP disruption assay, SpCas9, U2OS.eGFP.PEST cells; type: cell-based; conditions: for Z score Rep1 / Normalized Z rep1: replicate 1; for SpCas9 eGFP disruption Rep1: replicate 1, raw readout; for Z socre Rep2 / Normalized Z rep2: replicate 2; for SpCas9 eGFP disruption Rep2: replicate 2, raw readout
SpCas9, sequence (Q99ZW2 whole entry): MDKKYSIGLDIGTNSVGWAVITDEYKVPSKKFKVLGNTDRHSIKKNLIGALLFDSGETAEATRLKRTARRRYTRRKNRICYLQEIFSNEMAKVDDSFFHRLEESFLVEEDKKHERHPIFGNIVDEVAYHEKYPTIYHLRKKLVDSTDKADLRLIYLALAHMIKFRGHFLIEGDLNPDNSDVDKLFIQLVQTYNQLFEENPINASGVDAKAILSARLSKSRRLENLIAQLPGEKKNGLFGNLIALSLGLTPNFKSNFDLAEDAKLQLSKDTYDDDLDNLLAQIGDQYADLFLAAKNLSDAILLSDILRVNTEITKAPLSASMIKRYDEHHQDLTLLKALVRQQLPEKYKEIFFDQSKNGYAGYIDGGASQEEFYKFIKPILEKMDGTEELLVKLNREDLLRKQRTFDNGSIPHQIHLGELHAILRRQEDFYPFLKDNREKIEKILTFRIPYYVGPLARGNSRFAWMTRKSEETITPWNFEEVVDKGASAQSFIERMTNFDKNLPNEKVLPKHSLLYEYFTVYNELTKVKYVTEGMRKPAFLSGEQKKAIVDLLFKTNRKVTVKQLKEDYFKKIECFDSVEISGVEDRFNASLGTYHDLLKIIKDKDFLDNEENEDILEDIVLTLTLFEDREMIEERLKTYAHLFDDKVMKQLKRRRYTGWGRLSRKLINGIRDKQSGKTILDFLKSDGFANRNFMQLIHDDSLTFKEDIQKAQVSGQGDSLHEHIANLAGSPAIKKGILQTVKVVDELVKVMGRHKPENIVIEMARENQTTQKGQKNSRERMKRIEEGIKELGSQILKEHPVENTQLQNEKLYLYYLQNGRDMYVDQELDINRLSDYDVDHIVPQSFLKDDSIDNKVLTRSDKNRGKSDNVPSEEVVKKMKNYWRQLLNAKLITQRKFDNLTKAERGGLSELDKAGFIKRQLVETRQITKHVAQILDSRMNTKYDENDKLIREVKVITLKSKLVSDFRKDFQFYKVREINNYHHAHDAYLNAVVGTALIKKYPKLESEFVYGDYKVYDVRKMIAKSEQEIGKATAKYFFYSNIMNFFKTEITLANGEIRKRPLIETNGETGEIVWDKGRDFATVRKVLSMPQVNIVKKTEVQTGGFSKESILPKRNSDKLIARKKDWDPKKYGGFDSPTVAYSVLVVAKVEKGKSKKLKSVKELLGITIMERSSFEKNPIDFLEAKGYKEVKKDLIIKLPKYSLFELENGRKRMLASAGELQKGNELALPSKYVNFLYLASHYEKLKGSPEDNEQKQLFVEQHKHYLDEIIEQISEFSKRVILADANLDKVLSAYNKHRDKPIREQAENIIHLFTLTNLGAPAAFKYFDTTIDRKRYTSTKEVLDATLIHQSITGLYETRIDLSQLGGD
Outline: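 U2OS.eGFP.PEST cells nucleofected with 300 ng SpCas9 plasmid plus 30 ng eGFP-targeting gRNA plasmid, or with SpCas9 RNP (10 pmol protein, 12 pmol gRNA). Cells then incubated 24 h with compound (20 μM in screening). Inhibition is read as rescue of eGFP fluorescence in paraformaldehyde-fixed, nuclear-stained cells.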

[3] = Cas9 = lower control, Ctrl = upper control
[4] = normalized, lower control about 0, upper control about 1

Structure (SMILES) | Z score Avg Z (SaCas9 [1]) | Normalized Inhibition Rep 1 (SaCas9 [1]) | Normalized eGFP Disruption Rep 1 (SaCas9 [1]) | Z score Rep1 (SaCas9 [1]) | Normalized Inhibition Rep 2 (SaCas9 [1]) | Normalized eGFP Disruption Rep 2 (SaCas9 [1]) | Z score Rep 2 (SaCas9 [1]) | further results
O=C(NCCCN1CCC(N2CCCCC2)CC1)C1=Cc2sc3c(c2CS1)CCCC3 [E722-2652] | 5.750 | 43.522 | 56.478 | 5.564 | 47.827 | 52.173 | 5.937 | Auto Zscore Rep 1 (SaCas9 [2]): 1.567; Auto Zscore Rep 2 (SaCas9 [2]): 0.3807; Normalized Zscore Rep 1 (SaCas9 [2]): 0.4606; Normalized Zscore Rep 2 (SaCas9 [2]): 0.3192; 3 sigma Hit (SaCas9 [2]): 1; 5 sigma Hit (SaCas9 [2]; flag 1 = hit at 5 sigma): 1
Cc1occc1-c1nnc2sc(-c3c[nH]c4ccccc34)nn12 [Compound D727-0786] | 5.097 | 57.282 | 42.718 | 8.674 | 12.722 | 87.278 | 1.519 | Z score Rep1 (SpCas9): 0.48; SpCas9 eGFP disruption Rep1 (SpCas9; [3]): 68.596; Normalized Z rep1 (SpCas9; [4]): 0.07; Z socre Rep2 (SpCas9): 1.91; SpCas9 eGFP disruption Rep2 (SpCas9; [3]): 68.839; Normalized Z rep2 (SpCas9; [4]): 0.20
NC(=O)c1sc(=S)n(Cc2ccccc2)c1N [Compound F128-0030] | 8.704 | 70.438 | 29.562 | 9.005 | 67.693 | 32.307 | 8.402 | Auto Zscore Rep 1 (SaCas9 [2]): −0.4371; Auto Zscore Rep 2 (SaCas9 [2]): 0.1928; Normalized Zscore Rep 1 (SaCas9 [2]): 0.187; Normalized Zscore Rep 2 (SaCas9 [2]): 0.143; 3 sigma Hit (SaCas9 [2]): 1
Cc1nn(-c2ccccc2)c(C)c1CCc1nnc2sc(-c3ccc(N(C)C)cc3)nn12 [D727-0717] | 6.053 | 33.284 | 66.716 | 5.040 | 59.171 | 40.829 | 7.065 | 
O=C1c2ccccc2C(=O)c2oc(-c3ccc(F)cc3)nc21 [T0502-0200] | 3.138 | 35.091 | 64.909 | 3.528 | 35.519 | 64.481 | 2.749 | 
CNC(=O)c1sc(=S)n2c1[nH]c(=O)c1cc(Br)ccc12 [F083-0285] | 3.318 | 30.708 | 69.292 | 3.635 | 22.819 | 77.181 | 3.002 | Normalized Z rep1 (SpCas9): −0.25; Z score Rep1 (SpCas9): −1.78; SpCas9 eGFP disruption Rep1 (SpCas9): 61.126; Normalized Z rep2 (SpCas9): −0.48; Z socre Rep2 (SpCas9): −4.46; SpCas9 eGFP disruption Rep2 (SpCas9): 49.642
CCCN(CCC)C(=O)C1CCCN(c2ccc(-c3ccccc3)nn2)C1 (stereo not shown) [F305-0061] | 5.220 | 39.473 | 60.527 | 4.673 | 43.845 | 56.155 | 5.767 | 
CC(C)Cc1nnc2sc(-c3c[nH]c4ccccc34)nn12 [D727-0768] | 4.634 | 20.049 | 79.951 | 3.036 | 52.187 | 47.813 | 6.231 | 
CCOc1ccc(NC(=O)c2cc(=O)c3cc(CC)ccc3o2)c2cccnc12 [Compound D656-0061] | 3.973 | 7.616 | 92.384 | 1.153 | 56.899 | 43.101 | 6.794 | 
Cc1ccc(C)c(Nc2nc(C(N)=O)c(NC(=O)c3ccc(C)nc3Cl)s2)c1 [D686-0195] | 6.110 | 29.879 | 70.121 | 4.525 | 64.458 | 35.542 | 7.696 | 
Fc1cccc(-c2nnc3sc(-c4c[nH]c5ccccc45)nn23)c1 [Compound D727-0772] | 3.957 | 42.243 | 57.757 | 6.397 | 12.707 | 87.293 | 1.517 | 
C=CC1=C(C(=O)O)N2C(=O)[C@@H](NC(=O)C(=NOCC(=O)O)c3csc(N)n3)[C@H]2SC1.O [SAM001246816] | 3.731 | 37.117 | 62.883 | 4.745 | 21.891 | 78.109 | 2.717 | Z score Rep1 (SpCas9): 0.17; SpCas9 eGFP disruption Rep1 (SpCas9; [3]): 76.555; Normalized Z rep1 (SpCas9; [4]): 0.03; Z socre Rep2 (SpCas9): −1.15; SpCas9 eGFP disruption Rep2 (SpCas9; [3]): 74.015; Normalized Z rep2 (SpCas9; [4]): −0.12
Cc1nc(Nc2ccc(N3CCOCC3)cc2)cc(-c2ccccc2)n1 [D278-0547] | 4.467 | 55.528 | 44.472 | 5.583 | 43.307 | 56.693 | 3.352 | 
Cc1ccccc1CC(=O)N1CCCC(c2nc(O)c3nnn(Cc4ccc(F)cc4)c3n2)C1 (stereo not shown) [D297-0031] | 3.488 | 35.959 | 64.041 | 3.615 | 43.425 | 56.575 | 3.361 | 
Cc1cccc(NC(=O)c2cc3c(=O)n4ccccc4nc3s2)c1 [C243-0026] | 3.100 | 30.470 | 69.530 | 3.063 | 40.519 | 59.481 | 3.136 | 
CCCCN(CC)C(=O)C1CCCN(c2ccc(-c3ccccc3)nn2)C1 (stereo not shown) [Compound F305-0030] | 4.852 | 42.608 | 57.392 | 5.044 | 35.423 | 64.577 | 4.659 | 
CC(=O)Nc1ccc(C(=O)Nc2ccc(CCc3nc4ccccc4n3-c3ccccc3)cc2)cc1 [F255-0057] | 5.773 | 46.812 | 53.188 | 5.542 | 45.641 | 54.359 | 6.003 | 
